From paper PMC10288273, “Allosteric Activation of Transglutaminase 2 via Inducing an “Open” Conformation for Osteoblast Differentiation” (Advanced Science, 2023)

Target: T1, TGM2 (in MC3T3-E1 cells) (Mus musculus, UniProt P21981)
T1 construct: native full-length protein in MC3T3-E1 pre-osteoblast cells
T1 sequence (P21981 2-686): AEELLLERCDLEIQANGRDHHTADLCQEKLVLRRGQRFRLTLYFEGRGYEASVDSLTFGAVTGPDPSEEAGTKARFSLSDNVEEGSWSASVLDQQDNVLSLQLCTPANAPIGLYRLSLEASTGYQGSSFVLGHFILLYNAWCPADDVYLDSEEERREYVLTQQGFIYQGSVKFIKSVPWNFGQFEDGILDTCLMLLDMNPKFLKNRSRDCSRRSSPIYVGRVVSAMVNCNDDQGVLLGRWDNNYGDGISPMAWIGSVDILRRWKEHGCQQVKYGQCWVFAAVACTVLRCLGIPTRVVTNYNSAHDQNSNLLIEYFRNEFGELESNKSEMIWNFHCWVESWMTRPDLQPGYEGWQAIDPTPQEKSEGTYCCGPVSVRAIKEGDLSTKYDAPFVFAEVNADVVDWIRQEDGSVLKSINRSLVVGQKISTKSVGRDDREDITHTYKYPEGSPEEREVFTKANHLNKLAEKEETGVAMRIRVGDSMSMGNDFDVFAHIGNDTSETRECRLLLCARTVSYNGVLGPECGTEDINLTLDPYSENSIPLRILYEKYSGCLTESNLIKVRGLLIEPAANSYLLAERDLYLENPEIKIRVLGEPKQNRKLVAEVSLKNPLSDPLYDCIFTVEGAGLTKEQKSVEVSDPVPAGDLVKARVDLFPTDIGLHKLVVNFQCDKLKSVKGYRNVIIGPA
Experiment: CETSA; DARTS
Assay type: cell-based

SMILES: C=C[C@@]1(C)CC(=O)[C@]2(O)[C@@]3(C)[C@@H](O)CCC(C)(C)[C@@H]3[C@H](O)[C@H](OC(C)=O)[C@@]2(C)O1 [Forskolin]
- thermal stabilisation (CETSA): FSK enhanced the thermal stability of TGM2
